Earlier results on four molecules are cited in publication PMC8513935.

Data set [1] can be described thus: experimental, compiled by the authors from the literature (the ESI cites the sources).
Data set [2] can be described thus: derived by the authors as gas->solvent minus gas->water (a hypothetical dry solvent; the ESI), not a two-phase measurement.
The nature of data set [3]: log P octanol/water from commercial databases, averaged (the ESI). Conditions: Octanol (wet), 25 C.

In the case of `CCC1CCCCC1`, the log K of transfer, gas to solvent in data set [1] (1,2-Dichloroethane, 25 C) was 3.57 log10 K; in data set [1] (Acetonitrile, 25 C) it was 2.87 log10 K; in data set [1] (Butan-1-ol, 25 C), 3.44 log10 K; in data set [1] (Butanone, 25 C), 3.53 log10 K; in data set [1] (Butyronitrile, 25 C), 3.35 log10 K; in data set [1] (CCl4, 25 C), 4.08 log10 K. The log K of transfer, gas to solvent in data set [1] (Chlorobenzene, 25 C) is 4.06 log10 K; in data set [1] (Chloroform, 25 C) it was 3.99 log10 K; in data set [1] (Cyclohexanone, 25 C), 3.55 log10 K; in data set [1] (Dichloromethane, 25 C), 3.82 log10 K; in data set [1] (Ethanol, 25 C), 3.27 log10 K; in data set [1] (Hexadecane, 25 C), 3.88 log10 K. Moreover, the log K of transfer, gas to solvent was 3.97 log10 K in data set [1] (Hexane, 25 C); 2.96 log10 K in data set [1] (Methanol, 25 C); 2.56 log10 K in data set [1] (Perfluoroalkane, 25 C); 3.28 log10 K in data set [1] (Propan-1-ol, 25 C); 3.27 log10 K in data set [1] (Propan-2-ol, 25 C); 3.32 log10 K in data set [1] (Propanone, 25 C). Besides, the log K of transfer, gas to solvent in data set [1] (Propionitrile, 25 C) is 3.17 log10 K; in data set [1] (Tetrahydrofuran, 25 C), 3.92 log10 K; in data set [1] (Water, 25 C), -1.58 log10 K. In addition, the log K of transfer, water to solvent in data set [2] (1,2-Dichloroethane, 25 C) is 5.15 log10 K; in data set [2] (Acetone, 25 C), 4.9 log10 K; in data set [2] (Acetonitrile, 25 C) it was 4.45 log10 K; in data set [2] (Butan-1-ol, 25 C), 5.02 log10 K; in data set [2] (Butanone, 25 C) it was 5.11 log10 K; in data set [2] (Butyronitrile, 25 C), 4.93 log10 K. Also, the log K of transfer, water to solvent in data set [2] (CCl4, 25 C) is 5.66 log10 K; in data set [2] (Chlorobenzene, 25 C), 5.64 log10 K; in data set [2] (Chloroform, 25 C), 5.57 log10 K; in data set [2] (Cyclohexanone, 25 C), 5.13 log10 K; in data set [2] (Dichloromethane, 25 C), 5.4 log10 K; in data set [2] (Ethanol, 25 C), 4.84 log10 K. The log K of transfer, water to solvent in data set [2] (Hexadecane, 25 C) was 5.45 log10 K; in data set [2] (Hexane, 25 C) it was 5.55 log10 K; in data set [2] (Methanol, 25 C), 4.54 log10 K; in data set [2] (Perfluoroalkane, 25 C), 4.14 log10 K; in data set [2] (Propan-1-ol, 25 C), 4.86 log10 K; in data set [2] (Propan-2-ol, 25 C), 4.85 log10 K. Further, the log K of transfer, water to solvent in data set [2] (Propionitrile, 25 C) was 4.75 log10 K; in data set [2] (Tetrahydrofuran, 25 C), 5.5 log10 K; in data set [3], 4.56 log10 K.

As to `O=C1CCCCC1`, the log K of transfer, gas to solvent in data set [1] (1,2-Dichloroethane, 25 C) is 4.97 log10 K; in data set [1] (CCl4, 25 C), 4.57 log10 K; in data set [1] (Cyclohexanone, 25 C), 4.65 log10 K; in data set [1] (Hexadecane, 25 C), 3.79 log10 K; in data set [1] (Hexane, 25 C), 3.65 log10 K; in data set [1] (Water, 25 C) it was 3.6 log10 K. Also, the log K of transfer, water to solvent in data set [2] (1,2-Dichloroethane, 25 C) is 1.37 log10 K; in data set [2] (CCl4, 25 C), 0.97 log10 K; in data set [2] (Cyclohexanone, 25 C), 1.05 log10 K; in data set [2] (Hexadecane, 25 C) it was 0.192 log10 K; in data set [2] (Hexane, 25 C), 0.05 log10 K; in data set [3], 0.81 log10 K.

With `OC1CCCCC1`, the log K of transfer, gas to solvent in data set [1] (Chloroform, 25 C) was 5.13 log10 K; in data set [1] (Decan-1-ol, 25 C), 5.48 log10 K; in data set [1] (Hexadecane, 25 C), 3.76 log10 K; in data set [1] (Octan-1-ol, 25 C), 5.18 log10 K; in data set [1] (Propanone, 25 C) it was 5.09 log10 K; in data set [1] (Water, 25 C) it was 4.01 log10 K. Besides, the log K of transfer, water to solvent in data set [2] (Acetone, 25 C) was 1.08 log10 K; in data set [2] (Chloroform, 25 C), 1.12 log10 K; in data set [2] (Decan-1-ol, 25 C), 1.48 log10 K; in data set [2] (Hexadecane, 25 C), -0.252 log10 K; in data set [2] (Octan-1-ol(dry), 25 C), 1.17 log10 K; in data set [3], 1.23 log10 K.

`CCCCN`: the log K of transfer, gas to solvent in data set [1] (1,2-Dichloroethane, 25 C) is 3.29 log10 K; in data set [1] (Benzene, 25 C), 3.17 log10 K; in data set [1] (CCl4, 25 C), 3.15 log10 K; in data set [1] (Chlorobenzene, 25 C) it was 3.06 log10 K; in data set [1] (Chloroform, 25 C) it was 3.86 log10 K; in data set [1] (Cyclohexane, 25 C) it was 2.62 log10 K. For the same molecule, the log K of transfer, gas to solvent is 2.68 log10 K in data set [1] (Di-n-butyl ether, 25 C); 2.62 log10 K in data set [1] (Hexadecane, 25 C); 3.61 log10 K in data set [1] (Octan-1-ol, 25 C); 3.25 log10 K in data set [1] (Toluene, 25 C); 3.11 log10 K in data set [1] (Water, 25 C). The log K of transfer, water to solvent in data set [2] (1,2-Dichloroethane, 25 C) was 0.18 log10 K; in data set [2] (Benzene, 25 C) it was 0.06 log10 K; in data set [2] (CCl4, 25 C), 0.04 log10 K; in data set [2] (Chlorobenzene, 25 C) it was -0.05 log10 K; in data set [2] (Chloroform, 25 C), 0.75 log10 K; in data set [2] (Cyclohexane, 25 C), -0.488 log10 K. Besides, the log K of transfer, water to solvent is -0.43 log10 K in data set [2] (Di-n-butyl ether, 25 C); -0.492 log10 K in data set [2] (Hexadecane, 25 C); 0.5 log10 K in data set [2] (Octan-1-ol(dry), 25 C); 0.14 log10 K in data set [2] (Toluene, 25 C); 0.97 log10 K in data set [3].
